From US11597762B2, “Treatment of a disease of the gastrointestinal tract with an IL-12/IL-23 inhibitor released using an ingestible device” (BIORA THERAPEUTICS, INC., priority 2016, dated 2023)

Assay: Tacrolimus tissue pharmacokinetics, oral vs intra-cecal ingestible device, in Yorkshire-Cross farm swine
Format: in vivo
Conditions: intra-cecal compared to oral, 12 hours post-dose, FIG. 76
Description: No further randomization procedure was employed.
Animals in Group 1 received an ingestible device containing 0.8 mL of vehicle solution (80% alcohol, 20% HCO-60). Animals in Group 2 received orally […] liquid formulation of tacrolimus at 4 mg/0.8 mL per animal (Prograf: 5 mg/mL). Animals in Group 3 received intra-cecally an ingestible device containing tacrolimus at 1 mg in 0.8 mL per ingestible device. Animals in Group 4 received intra-cecally an ingestible device containing tacrolimus at 2 mg in 0.8 mL per ingestible device. Animals in Group 5 received intra-cecally an ingestible device containing tacrolimus at 4 mg in 0.8 mL per ingestible device. […]
Approximately 200˜400 mg of rectal content were collected, if available, with a fecal swab (Copan Diagnostics Nylon Flocked Dry Swabs, 502CS01). The fecal swab was pre-weighed and weighed after collection in the collection tube (Sterile Tube and Cap No Media, PFPM913S), and the sample weight was recorded. […]
For tissue necropsy, small intestine fluid and cecal fluid were collected separately from all the animals into two separate square plastic bottles, and stored at −20° C. The length and diameter of the cecum and the colon was measured from one animal in each group and recorded for reference. […] All samples were weighed, and the tissue sample weights were recorded. […]

C=CC[C@@H]1/C=C(\C)C[C@H](C)C[C@H](OC)[C@H]2O[C@@](O)(C(=O)C(=O)N3CCCC[C@H]3C(=O)O[C@H](/C(C)=C/[C@@H]3CC[C@@H](O)[C@H](OC)C3)[C@H](C)[C@@H](O)CC1=O)[C@H](C)C[C@@H]2OC [tacrolimus]
mean concentration of tacrolimus in the cecum tissue: higher | mean concentration of tacrolimus in the proximate colon tissue: higher
